According to paper PMC12281424, “A Rac-specific competitive inhibitor of guanine nucleotide binding reduces metastasis in triple-negative breast cancer” (Cell Reports Medicine, 2025):

Experiments:
Abl (M351T)(h) = Abl (M351T)(h) (Homo sapiens, UniProt P00519, M351T); assay: Kinase Profiler; assay type: biochemical
Description: (§1) The kinase profiler was performed by the company Eurofins (Discovery, Panlab and Cerep).

ALK6(h) = ALK6(h) (Homo sapiens, UniProt O00238); assay: Kinase Profiler; assay type: biochemical
Description: as §1

Met(M1268T)(h) = Met(M1268T)(h) (Homo sapiens, UniProt P08581, M1250T); assay: Kinase Profiler; assay type: biochemical
Description: as §1

Transporter, Adenosine = assay: Safety screen; assay type: binding, guinea pig
Description: (§2) Blood cell counts, kinase profiler, safety screen, bacterial cytotoxicity, Ames, micronucleus assays were performed by the company Eurofins (France).

VRK1(h) = VRK1(h) (Homo sapiens, UniProt Q99986); assay: Kinase Profiler; assay type: biochemical
Sequence of VRK1(h) (Q99986 whole entry): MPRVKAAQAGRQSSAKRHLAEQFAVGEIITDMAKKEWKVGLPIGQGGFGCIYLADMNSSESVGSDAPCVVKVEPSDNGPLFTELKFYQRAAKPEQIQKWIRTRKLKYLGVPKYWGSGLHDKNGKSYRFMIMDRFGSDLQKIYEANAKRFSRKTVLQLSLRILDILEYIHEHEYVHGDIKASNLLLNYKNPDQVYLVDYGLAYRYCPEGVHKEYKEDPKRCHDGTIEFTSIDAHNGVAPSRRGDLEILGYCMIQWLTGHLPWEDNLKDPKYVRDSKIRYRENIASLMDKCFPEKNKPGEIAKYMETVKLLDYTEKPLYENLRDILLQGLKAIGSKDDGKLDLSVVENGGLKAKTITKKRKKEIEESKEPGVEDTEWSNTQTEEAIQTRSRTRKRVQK
Description: as §1

PAK5(h) = PAK5(h) (Homo sapiens, UniProt Q9P286); assay: Kinase Profiler; assay type: biochemical
Sequence of PAK5(h) (Q9P286 whole entry): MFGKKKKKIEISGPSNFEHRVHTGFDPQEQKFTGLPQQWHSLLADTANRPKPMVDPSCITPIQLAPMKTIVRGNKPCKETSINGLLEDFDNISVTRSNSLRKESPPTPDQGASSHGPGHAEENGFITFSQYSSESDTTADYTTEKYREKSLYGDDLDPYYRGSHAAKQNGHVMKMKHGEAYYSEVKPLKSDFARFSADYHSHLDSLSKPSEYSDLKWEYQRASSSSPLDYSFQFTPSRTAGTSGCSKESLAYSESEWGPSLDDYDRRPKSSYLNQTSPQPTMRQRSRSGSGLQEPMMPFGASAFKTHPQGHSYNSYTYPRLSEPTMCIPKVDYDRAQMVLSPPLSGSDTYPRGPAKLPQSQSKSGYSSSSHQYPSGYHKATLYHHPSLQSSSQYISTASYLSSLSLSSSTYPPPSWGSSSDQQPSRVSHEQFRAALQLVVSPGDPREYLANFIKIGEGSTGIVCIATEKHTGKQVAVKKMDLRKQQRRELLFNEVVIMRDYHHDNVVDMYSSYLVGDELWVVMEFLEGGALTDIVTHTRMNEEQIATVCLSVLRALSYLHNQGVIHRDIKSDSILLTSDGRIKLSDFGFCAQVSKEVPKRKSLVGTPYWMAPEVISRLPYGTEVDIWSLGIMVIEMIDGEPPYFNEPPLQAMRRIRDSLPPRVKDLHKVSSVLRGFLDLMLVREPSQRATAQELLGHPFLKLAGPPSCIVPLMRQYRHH
Description: as §1

cKit(V560G)(h) = cKit(V560G)(h) (Homo sapiens, UniProt P10721, V560G); assay: Kinase Profiler; assay type: biochemical
Sequence of cKit(V560G)(h) (P10721 26-976 V560G): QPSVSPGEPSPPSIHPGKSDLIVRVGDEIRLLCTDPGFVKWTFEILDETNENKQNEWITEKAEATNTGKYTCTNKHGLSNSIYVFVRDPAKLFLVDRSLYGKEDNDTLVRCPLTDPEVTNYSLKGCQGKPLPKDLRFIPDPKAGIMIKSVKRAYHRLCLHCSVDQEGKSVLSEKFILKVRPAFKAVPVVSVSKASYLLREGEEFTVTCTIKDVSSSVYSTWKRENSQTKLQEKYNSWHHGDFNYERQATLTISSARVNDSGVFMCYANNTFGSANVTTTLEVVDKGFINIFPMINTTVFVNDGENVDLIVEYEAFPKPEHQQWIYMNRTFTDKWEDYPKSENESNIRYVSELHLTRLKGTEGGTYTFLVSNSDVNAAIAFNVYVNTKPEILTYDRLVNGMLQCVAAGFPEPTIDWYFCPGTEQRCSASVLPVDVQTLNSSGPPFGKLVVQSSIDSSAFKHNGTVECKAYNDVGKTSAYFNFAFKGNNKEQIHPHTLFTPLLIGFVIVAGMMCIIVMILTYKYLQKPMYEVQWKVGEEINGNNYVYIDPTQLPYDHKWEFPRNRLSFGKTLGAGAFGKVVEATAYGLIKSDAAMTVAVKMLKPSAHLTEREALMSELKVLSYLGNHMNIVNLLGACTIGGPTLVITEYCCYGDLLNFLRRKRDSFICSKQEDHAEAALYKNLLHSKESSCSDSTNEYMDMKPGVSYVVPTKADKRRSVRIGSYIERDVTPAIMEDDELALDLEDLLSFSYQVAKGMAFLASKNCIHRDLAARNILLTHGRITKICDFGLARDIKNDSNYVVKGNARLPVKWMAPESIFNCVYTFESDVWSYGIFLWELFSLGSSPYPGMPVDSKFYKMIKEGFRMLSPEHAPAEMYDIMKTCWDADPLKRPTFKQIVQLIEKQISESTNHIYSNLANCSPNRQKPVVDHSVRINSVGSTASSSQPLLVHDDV
Description: (§3) Blood cell counts, kinase profiler, safety screen, bacterial cytotoxicity, Ames, micronucleus assays were performed by the company Eurofins (France). The kinase profiler was performed by the company Eurofins (Discovery, Panlab and Cerep).

DYRK3(h) = DYRK3(h) (Homo sapiens, UniProt O43781); assay: Kinase Profiler; assay type: biochemical
Description: as §1

Src(1-530)(h) = Src(1-530)(h) (Homo sapiens, UniProt P12931); assay: Kinase Profiler; assay type: biochemical
Sequence of Src(1-530)(h) (P12931 1-530 limits assumed): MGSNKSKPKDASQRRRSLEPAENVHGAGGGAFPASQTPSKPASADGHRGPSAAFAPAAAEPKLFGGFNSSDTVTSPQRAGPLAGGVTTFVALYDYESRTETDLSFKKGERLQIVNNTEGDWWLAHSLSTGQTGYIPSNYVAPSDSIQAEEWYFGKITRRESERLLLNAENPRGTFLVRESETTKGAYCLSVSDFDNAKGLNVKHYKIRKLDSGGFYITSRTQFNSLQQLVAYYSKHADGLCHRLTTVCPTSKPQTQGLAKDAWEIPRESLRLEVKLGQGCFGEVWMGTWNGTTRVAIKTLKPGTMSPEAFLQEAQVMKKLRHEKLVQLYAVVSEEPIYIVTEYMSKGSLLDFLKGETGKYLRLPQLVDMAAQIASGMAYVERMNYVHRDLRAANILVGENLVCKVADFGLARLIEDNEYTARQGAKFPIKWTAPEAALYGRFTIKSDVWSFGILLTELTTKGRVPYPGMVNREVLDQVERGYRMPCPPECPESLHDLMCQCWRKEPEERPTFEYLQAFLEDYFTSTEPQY
Description: as §1

Transporter, GABA = assay: Safety screen; assay type: binding, rat
Description: as §2

CDK7/cyclinH/MAT1(h) = CDK7/cyclinH/MAT1(h) (Homo sapiens, UniProt P50613); assay: Kinase Profiler; assay type: biochemical
Description: as §3

IGF-1R(h) = IGF-1R(h) (Homo sapiens, UniProt P08069); assay: Kinase Profiler; assay type: biochemical
Description: as §3

RAC1 G30S = biological target: T1, RAC1 G30S (Homo sapiens, UniProt P63000, G30S); assay: GEF-stimulated nucleotide exchange; assay type: biochemical; parameters: dose or concentration left out as unconfirmed
T1 construct: Full-length RAC1G30S was obtained by directed mutagenesis on the pET-3a-RAC1HisCter plasmid; 6xHis (C); made in house
Source text: Figure 4 A41 selectively impairs RAC protein activation (A) Representative surface plasmon resonance (SPR) sensograms of binding of immobilized RHOA or CDC42 with indicated increasing concentrations of A41 (N > 3). (B) Effect of A41 on GEF-stimulated RAC2, RHOG, RHOA, and CDC42 nucleotide exchange. […] Kobs is expressed as mean ± SEM. ∗p < 0.001 vs. control. (C) Effect of A41 on RAC1 G30S activation. […] Data are expressed as mean ± SEM. (D) Immunoblot analysis and associated quantification of RAC-GTP level and total RAC expression in NIH-3T3 fibroblasts expressing RAC wild-type (RAC1 WT) or RAC1 oncomutants (RAC1 P29S and RAC1b) in the absence (Ctrl) and presence of A41 (10 μM). RAC activation was measured as the ratio of RAC-GTP to total RAC and expressed relative to Ctrl condition. Data are presented as mean ± SEM. ∗∗∗p < 0.001 vs. controls.
Full-length RAC1 carrying a 6xHis tag in C-terminus was purified as previously described.[64] […] Specific exchange activity toward RHOA determined by fluorescence kinetics is 0.04 s^−1M^−1.
Nucleotide exchange kinetics were measured by recording the increase in fluorescence following the association of mant-GTP on GDP-bound RHO protein or the decay in fluorescence following the dissociation of mant-GDP pre-loaded onto the RHO protein (λEx = 360 nm, λEm = 440 nm) as previously described.[39] […]

PI3K (p110d/p85a)(h) = PI3K (p110d/p85a)(h) (Homo sapiens, UniProt O00329); assay: Kinase Profiler; assay type: biochemical
Sequence of PI3K (p110d/p85a)(h) (O00329 whole entry): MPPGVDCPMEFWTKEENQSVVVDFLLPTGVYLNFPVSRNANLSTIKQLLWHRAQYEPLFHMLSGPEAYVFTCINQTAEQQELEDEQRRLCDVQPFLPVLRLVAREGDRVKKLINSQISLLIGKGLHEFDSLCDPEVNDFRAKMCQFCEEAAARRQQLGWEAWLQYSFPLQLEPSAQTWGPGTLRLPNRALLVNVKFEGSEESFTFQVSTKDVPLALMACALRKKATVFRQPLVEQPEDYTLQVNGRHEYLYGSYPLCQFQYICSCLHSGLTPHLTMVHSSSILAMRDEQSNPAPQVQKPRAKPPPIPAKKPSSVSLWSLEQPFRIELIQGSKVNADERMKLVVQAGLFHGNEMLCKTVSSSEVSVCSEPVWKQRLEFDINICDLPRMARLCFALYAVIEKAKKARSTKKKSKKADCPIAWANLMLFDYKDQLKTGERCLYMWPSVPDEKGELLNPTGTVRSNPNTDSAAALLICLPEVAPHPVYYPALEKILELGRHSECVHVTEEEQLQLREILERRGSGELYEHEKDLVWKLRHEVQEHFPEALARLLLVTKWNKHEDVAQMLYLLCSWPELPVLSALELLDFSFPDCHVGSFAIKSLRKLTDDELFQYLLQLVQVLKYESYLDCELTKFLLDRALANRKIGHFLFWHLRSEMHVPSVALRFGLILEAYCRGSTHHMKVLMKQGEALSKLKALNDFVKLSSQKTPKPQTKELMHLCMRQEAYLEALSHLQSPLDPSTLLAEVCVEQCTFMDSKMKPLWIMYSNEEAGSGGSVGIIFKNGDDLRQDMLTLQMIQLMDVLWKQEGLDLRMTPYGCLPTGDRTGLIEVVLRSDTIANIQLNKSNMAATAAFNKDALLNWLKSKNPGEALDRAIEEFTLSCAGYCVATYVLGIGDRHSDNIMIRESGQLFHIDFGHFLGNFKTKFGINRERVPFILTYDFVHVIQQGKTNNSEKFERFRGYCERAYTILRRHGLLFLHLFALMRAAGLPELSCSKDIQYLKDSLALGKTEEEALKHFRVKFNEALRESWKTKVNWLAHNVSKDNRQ
Sequence of PI3K (p110d/p85a)(h) (P27986 whole entry partner): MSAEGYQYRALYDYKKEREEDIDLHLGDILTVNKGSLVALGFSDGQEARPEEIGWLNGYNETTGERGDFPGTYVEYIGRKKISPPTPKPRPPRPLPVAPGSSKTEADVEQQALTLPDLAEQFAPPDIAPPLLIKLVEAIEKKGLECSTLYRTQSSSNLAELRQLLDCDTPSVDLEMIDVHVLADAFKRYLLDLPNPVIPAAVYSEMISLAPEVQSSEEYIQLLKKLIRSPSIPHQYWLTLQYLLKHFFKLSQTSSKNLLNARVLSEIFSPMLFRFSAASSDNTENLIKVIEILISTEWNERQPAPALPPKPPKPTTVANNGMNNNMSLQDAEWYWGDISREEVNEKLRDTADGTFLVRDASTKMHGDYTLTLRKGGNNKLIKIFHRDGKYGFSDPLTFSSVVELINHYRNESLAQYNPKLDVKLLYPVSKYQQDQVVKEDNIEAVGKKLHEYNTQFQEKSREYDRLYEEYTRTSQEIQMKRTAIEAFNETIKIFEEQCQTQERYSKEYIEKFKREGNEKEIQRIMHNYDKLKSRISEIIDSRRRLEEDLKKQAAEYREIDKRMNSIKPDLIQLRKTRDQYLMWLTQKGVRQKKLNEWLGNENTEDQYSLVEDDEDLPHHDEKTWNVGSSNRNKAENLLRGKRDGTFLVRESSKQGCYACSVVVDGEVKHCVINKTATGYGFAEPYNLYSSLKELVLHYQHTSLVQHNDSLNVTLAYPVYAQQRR
Description: as §3

ACK1(h) = ACK1(h) (Homo sapiens, UniProt Q07912); assay: Kinase Profiler; assay type: biochemical
Description: as §1

Sequence of ALK6(h) (O00238 14-502): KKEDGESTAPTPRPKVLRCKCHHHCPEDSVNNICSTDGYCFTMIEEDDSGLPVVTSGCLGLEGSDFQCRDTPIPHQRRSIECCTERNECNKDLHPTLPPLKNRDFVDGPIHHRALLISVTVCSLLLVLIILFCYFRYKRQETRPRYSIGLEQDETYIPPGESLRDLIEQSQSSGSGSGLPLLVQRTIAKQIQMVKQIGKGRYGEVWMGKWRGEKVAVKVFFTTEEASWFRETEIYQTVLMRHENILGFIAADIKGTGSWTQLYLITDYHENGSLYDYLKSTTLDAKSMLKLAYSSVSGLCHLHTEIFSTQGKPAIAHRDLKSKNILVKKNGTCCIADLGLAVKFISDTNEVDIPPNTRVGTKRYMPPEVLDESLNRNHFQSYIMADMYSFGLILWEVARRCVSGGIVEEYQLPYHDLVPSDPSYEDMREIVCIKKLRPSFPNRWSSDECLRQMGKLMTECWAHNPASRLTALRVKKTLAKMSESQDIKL

COc1ccc(OC)c(NS(=O)(=O)c2ccc(NC(=O)CCSc3ccc(C)cc3)cc2)c1 [Compound A41]
Activity(%) (Abl (M351T)(h)): 111% | Activity(%) (ALK6(h)): 104% | Activity(%) (Met(M1268T)(h)): 108% | % inh. (Transporter, Adenosine): 37% | Activity(%) (VRK1(h)): 103% | Activity(%) (PAK5(h)): 105% | Activity(%) (cKit(V560G)(h)): 115% | Activity(%) (DYRK3(h)): 112% | Activity(%) (Src(1-530)(h)): 105% | % inh. (Transporter, GABA): -4% | Activity(%) (CDK7/cyclinH/MAT1(h)): 106% | Activity(%) (IGF-1R(h)): 100% | TRIO-induced nucleotide exchange on RAC1 G30S (RAC1 G30S): not able to inhibit | Activity(%) (PI3K (p110d/p85a)(h)): 100% | Activity(%) (ACK1(h)): 103%
